Columns and labels:
[1] = biological target: T1, Prostaglandin E2 receptor EP4 subtype (Homo sapiens, UniProt P35408); assay: Binding affinity to human EP4 receptor expressed in HEK293 cells; assay type: cell-based
[2] = biological target: T1, Prostaglandin E2 receptor EP4 subtype; assay: Binding affinity to human EP4 receptor expressed in HEK293 cells in presence of 10% human serum; assay type: cell-based
Rattus norvegicus = species: Rattus norvegicus; assay: Antiinflammatory activity against adjuvant-induced rat arthritis model; assay type: functional

T1 sequence (P35408 whole entry): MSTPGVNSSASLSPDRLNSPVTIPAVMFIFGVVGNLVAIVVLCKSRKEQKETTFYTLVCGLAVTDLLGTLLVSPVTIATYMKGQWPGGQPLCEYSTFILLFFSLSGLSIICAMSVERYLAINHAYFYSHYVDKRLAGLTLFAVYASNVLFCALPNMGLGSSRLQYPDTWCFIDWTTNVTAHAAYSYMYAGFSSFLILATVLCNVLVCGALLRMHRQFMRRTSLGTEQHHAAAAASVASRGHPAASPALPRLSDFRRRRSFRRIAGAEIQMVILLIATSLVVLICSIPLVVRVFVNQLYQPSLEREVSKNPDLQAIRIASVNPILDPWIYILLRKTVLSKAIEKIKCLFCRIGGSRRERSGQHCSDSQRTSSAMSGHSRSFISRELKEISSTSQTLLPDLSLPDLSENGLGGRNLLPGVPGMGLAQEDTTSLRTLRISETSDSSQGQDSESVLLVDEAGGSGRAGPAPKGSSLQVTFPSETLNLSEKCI

Ki [1] | Ki [2] | Compound | ED50 (Rattus norvegicus)
1 nM | 940 nM | CCOc1c2c(c(OCC)c3ccccc13)C(=O)N(c1ccc(CS(=O)(=O)NC(=O)C3CCCc4ccccc43)cc1)C2 (configuration not stated) | 
4.2 nM | > 4000 nM | CCOc1c2c(c(OCC)c3ccccc13)C(=O)N(c1ccc(CS(=O)(=O)NC(=O)CCc3ccsc3)cc1)C2 | 
0.38 nM | 1200 nM | CCOc1c2c(c(OCC)c3ccccc13)C(=O)N(c1ccc(CS(=O)(=O)NC(=O)COc3ccccc3)cc1)C2 | 
0.43 nM | 350 nM | CCOc1c2c(c(OCC)c3ncccc13)CN(c1ccc(CS(=O)(=O)NC(=O)Cc3ccccc3C(F)(F)F)cc1C)C2=O | 
7.9 nM | > 4000 nM | CCOc1c2c(c(OCC)c3ccccc13)C(=O)N(c1ccc(CS(=O)(=O)NC(=O)C(c3ccccc3)c3ccccc3)cc1)C2 | 
0.27 nM | 8.9 nM | CCOc1ccccc1CC(=O)NS(=O)(=O)Cc1ccc(N2Cc3c(c(OCC)c4cccnc4c3OCC)C2=O)c(C)c1 | 
0.27 nM | 37 nM | CCOc1c2c(c(OCC)c3ncccc13)CN(c1ccc(CS(=O)(=O)NC(=O)Cc3ccccc3Cl)cc1C)C2=O | 
2.4 nM | 1600 nM | CCOc1c2c(c(OCC)c3ccccc13)C(=O)N(c1ccc(CS(=O)(=O)NC(=O)Cc3cccc(OC)c3)cc1)C2 | 
0.43 nM | 4.8 nM | CCOc1c2c(c(OCC)c3ccccc13)C(=O)N(c1ccc(CS(=O)(=O)NC(=O)Cc3cccc4ccccc34)cc1)C2 | 
2.8 nM | 48 nM | CCOc1c2c(c(OCC)c3ncccc13)CN(c1ccc(CS(=O)(=O)NC(=O)Cc3cccnc3)cc1C)C2=O | 
9.8 nM | 160 nM | CCOc1c2c(c(OCC)c3ncccc13)CN(c1ccc(CS(=O)(=O)NC(=O)Cc3ccncc3)cc1C)C2=O | 
0.54 nM | 2.3 nM | CCOc1c2c(c(OCC)c3ncccc13)CN(c1ccc(CS(=O)(=O)NC(=O)C3(c4c(OC)cccc4OC)CC3)cc1C)C2=O | 
2 nM | 600 nM | CCOc1c2c(c(OCC)c3ccccc13)C(=O)N(c1ccc(CS(=O)(=O)NC(=O)Cn3nccc3C)cc1)C2 | 
0.25 nM | 29 nM | CCOc1c2c(c(OCC)c3ccccc13)C(=O)N(c1ccc(CS(=O)(=O)NC(=O)Cc3ccccc3)cc1C)C2 | 
0.28 nM | 4.8 nM | CCOc1c2c(c(OCC)c3ncccc13)CN(c1ccc(CS(=O)(=O)NC(=O)Cc3c(Cl)cccc3Cl)cc1C)C2=O | 
3.3 nM | 660 nM | CCOc1c2c(c(OCC)c3ncccc13)C(=O)N(c1ccc(CS(=O)(=O)NC(=O)Cc3ccccc3)cc1C)C2 | 
0.55 nM | 4.2 nM | CCOc1c2c(c(OCC)c3ncccc13)CN(c1ccc(CS(=O)(=O)NC(=O)C3(c4ccccc4OC)CC3)cc1C)C2=O | 
0.31 nM | > 4000 nM | CCOc1c2c(c(OCC)c3ccccc13)C(=O)N(c1ccc(CS(=O)(=O)NC(=O)Cc3ccccc3)cc1)C2 | 
2.4 nM | 13 nM | CCOc1c2c(c(OCC)c3ncccc13)CN(c1ccc(CS(=O)(=O)NC(=O)Cc3ccccn3)cc1C)C2=O | 
0.43 nM | 380 nM | CCOc1c2c(c(OCC)c3ccccc13)C(=O)N(c1ccc(CS(=O)(=O)NC(=O)Cc3c(C)cc(C)cc3C)cc1)C2 | 
0.36 nM | 26 nM | COc1ccccc1CC(=O)NS(=O)(=O)Cc1ccc(N2Cc3c(c(OC(C)C)c4cccnc4c3OC(C)C)C2=O)c(C)c1 | 
0.48 nM | 34 nM | CCOc1c2c(c(OCC)c3ncccc13)CN(c1ccc(CS(=O)(=O)NC(=O)Cc3ccccc3F)cc1C)C2=O | 
0.38 nM | 17 nM | COc1ccccc1CC(=O)NS(=O)(=O)Cc1ccc(N2Cc3c(c(OCC(F)(F)F)c4cccnc4c3OCC(F)(F)F)C2=O)c(C)c1 | 
0.76 nM | 31 nM | CCOc1c2c(c(OCC)c3ncccc13)CN(c1ccc(CS(=O)(=O)NC(=O)Cc3ccccc3)cc1C)C2=O | 
0.32 nM | 13 nM | CCOc1c2c(c(OCC)c3ncccc13)CN(c1ccc(CS(=O)(=O)NC(=O)Cc3ccccc3OC(F)F)cc1C)C2=O | 
 |  | CS(=O)(=O)c1ccc(C2=C(c3ccccc3)C(=O)OC2)cc1 [ROFECOXIB] | 0.74 mg/kg
0.95 nM | 12 nM | COc1ccccc1C1(C(=O)NS(=O)(=O)Cc2ccc(N3Cc4c(c(OCC(F)(F)F)c5cccnc5c4OCC(F)(F)F)C3=O)c(C)c2)CC1 | 
0.37 nM | 38 nM | CCOc1c2c(c(OCC)c3ccccc13)C(=O)N(c1ccc(CS(=O)(=O)NC(=O)Cc3cc(OC)ccc3OC)cc1)C2 | 
0.21 nM | 56 nM | CCOc1c2c(c(OCC)c3ncccc13)CN(c1ccc(CS(=O)(=O)NC(=O)Cc3ccccc3OC(F)(F)F)cc1C)C2=O | 

— ChEMBL document CHEMBL1142248, “Structure-activity relationships and pharmacokinetic parameters of quinoline acylsulfonamides as potent and selective antagonists of the EP(4) receptor” (Bioorg Med Chem Lett, 2008)
